From US20200384064A1, “COMPOSITIONS AND METHODS USING HIGH PROTEIN FOR INDUCTION OF AUTOPHAGY” (SOCIETE DES PRODUiTS NESTLE S.A., priority 2017, published 2020)

Tested on: LC3 positive punctae in embryo muscles
Assay: LC3 positive punctae count in muscles of transgenic LC3-ZsGreen zebrafish embryos
Assay type: in vivo
Method: Autophagy was measured by counting the number of LC3 positive punctae in embryo muscles, normalized by total area. A zebrafish autophagy reporter has been generated by stable expression of the LC3 protein fused to ZsGreen under the control of a skeletal muscle specific promoter, hereafter LC3-ZsGreen. Embryos from outcrossed transgenic zebrafish have been raised at 28° C. under standard laboratory conditions and have been treated at 48 h post-fertilization in 96 well plates (n=24). After 16 hours of treatment embryos were anesthetized with 0.016% tricaine and imaged with ImageXpress confocal system at 20× magnification (Molecular Devices). After acquisition embryos were further treated with NH4Cl 100 mM for 4 h to block LC3 degradation and imaged again. Z stack images were captured for each embryo and maximal projection images were produced. Number of LC3 punctae have been calculated with MetaXpress software (Moleculare Devices) and normalized by fish area.

CC(C)[C@H](N)C(=O)O [Valine, valine]
Number of LC3 positive punctae in embryo muscles, normalized by total area (500 μM in fish water, 16 hours of treatment from 48 h post-fertilization): induced an increase of LC3 positive punctae | Autophagic flux (LC3 punctae in presence of the lysosomal inhibitor NH4Cl) (500 μM, then NH4Cl 100 mM for 4 h): increase of autophagic flux
